Values quoted from earlier work as cited in publication PMC9284491 (Nature Communications, 2022).

How the values were obtained:
ER = target: T1, ER (Homo sapiens, UniProt P03372); details: maximum 500 mg dose; cited from earlier work
T1 sequence (P03372 1-595): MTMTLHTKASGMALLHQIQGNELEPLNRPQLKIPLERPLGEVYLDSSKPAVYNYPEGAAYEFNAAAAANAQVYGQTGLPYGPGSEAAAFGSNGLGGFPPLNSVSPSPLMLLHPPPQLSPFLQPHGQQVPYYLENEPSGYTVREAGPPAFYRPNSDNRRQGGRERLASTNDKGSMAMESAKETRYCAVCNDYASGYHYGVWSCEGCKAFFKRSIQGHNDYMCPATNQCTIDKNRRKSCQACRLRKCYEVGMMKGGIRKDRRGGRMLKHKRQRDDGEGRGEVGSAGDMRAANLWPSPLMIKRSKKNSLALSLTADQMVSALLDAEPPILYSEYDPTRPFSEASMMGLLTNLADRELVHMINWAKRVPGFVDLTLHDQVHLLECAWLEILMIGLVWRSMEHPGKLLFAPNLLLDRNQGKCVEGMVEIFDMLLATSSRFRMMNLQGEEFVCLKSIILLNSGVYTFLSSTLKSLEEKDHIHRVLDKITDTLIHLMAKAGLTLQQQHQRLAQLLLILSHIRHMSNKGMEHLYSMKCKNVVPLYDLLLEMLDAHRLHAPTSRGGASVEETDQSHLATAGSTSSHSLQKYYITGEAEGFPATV

[1] = 500 mg intramuscular (day 1, day 14 of cycle 1, monthly from cycle 2); cited from earlier work

C[C@]12CC[C@@H]3c4ccc(O)cc4C[C@@H](CCCCCCCCC[S+]([O-])CCCC(F)(F)C(F)(F)F)[C@H]3[C@@H]1CC[C@@H]2O (some centres unmarked) [fulvestrant]
ER occupancy at maximum dose (ER): does not fully occupy the ER
Ctrough at steady state [1]: 12.5 ng/mL
